Experimental data reported in patent US9896443B2, “Perforin inhibiting benzenesulfonamide compounds, preparation and uses thereof” (Peter MacCallum Cancer Institute, priority 2012, dated 2018).
Read-outs that look alike come from different tables or passages of the source.

Assays:
[1] = test system: KHYG-1 NK cell-mediated lysis of K562 cells; assay: Inhibition of KHYG-1 NK cell-mediated lysis of K562 cells (51Cr release); format: cell-based; settings: 4 h, K562 target cells, Effector:Target 2:1, 4 hours at 37° C.
Experimental: Inhibition of KHYG-1 NK Cell-Mediated Lysis of K562 Cells.
Test compounds were added to KHYG-1 cells at various concentrations up to 20 µM and incubated at RT for 20 minutes. 1×10^6 K562 target cells were labelled with 75 μCi ^51Cr in 200 μl RPMI for 90 mins at 37° C., cells were washed as described above and resuspended in 5 ml RPMI+0.1% BSA. 50 μl of ^51Cr labelled K562 leukemia target cells were added to each well of the KHYG-1 plate (Effector:Target 2:1) and incubated at 37° C. for 4 hours. ^51Cr release was assayed using a Skatron Harvesting Press and radioactivity estimated on a Wallac Wizard 1470 Automatic Gamma counter (Turku, Finland). The percentage of specific cytotoxicity was calculated by the formula: […]

[2] = target: recombinant perforin (UniProt P10820); format: cell-based
Experimental: Inhibition of perforin-mediated lysis of Jurkat cells.
The ability of the compounds to inhibit the lysis of nucleated (Jurkat T lymphoma) cells in the presence of 0.1% BSA, as measured by release of ^51Cr was measured. Jurkat target cells were labelled by incubation in medium with 100 μCi ^51Cr for one hour. The cells were then washed three times to remove unincorporated isotope and re-suspended at 1×10^5 cells per mL in RPMI buffer supplemented with 0.1% BSA. […] Each data point was performed in triplicate and an IC50 was calculated from the range of concentrations described to above.

[3] = read-out: Jurkat IC50; lysis of Jurkat T lymphoma cells by recombinant perforin, 0.1% BSA, 30 min pre-incubation, 4 hours at 37° C.
[4] = lysis of Jurkat T lymphoma cells by recombinant perforin, 0.1% BSA, 30 min pre-incubation, 4 hours at 37° C.; read-out: Jurkat IC50

recombinant perforin, sequence (P10820 whole entry): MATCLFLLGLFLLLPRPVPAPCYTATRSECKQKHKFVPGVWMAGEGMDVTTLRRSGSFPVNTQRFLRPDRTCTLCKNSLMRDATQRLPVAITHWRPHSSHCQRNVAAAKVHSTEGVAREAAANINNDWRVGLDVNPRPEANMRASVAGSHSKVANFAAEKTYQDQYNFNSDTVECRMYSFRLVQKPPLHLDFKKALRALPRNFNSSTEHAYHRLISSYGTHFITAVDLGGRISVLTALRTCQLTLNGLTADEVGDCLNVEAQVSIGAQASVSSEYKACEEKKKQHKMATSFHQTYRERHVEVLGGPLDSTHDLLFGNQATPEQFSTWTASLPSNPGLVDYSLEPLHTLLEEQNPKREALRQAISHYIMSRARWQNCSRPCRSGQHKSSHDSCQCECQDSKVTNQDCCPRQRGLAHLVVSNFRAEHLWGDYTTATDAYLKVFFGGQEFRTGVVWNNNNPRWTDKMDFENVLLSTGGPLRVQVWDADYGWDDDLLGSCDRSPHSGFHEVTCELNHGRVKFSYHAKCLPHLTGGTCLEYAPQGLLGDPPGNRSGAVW

Compound	melting point	inhibition at 20 µM [1]	IC50 [2, 3]	IC50 [2, 4]
CN1Cc2cc(-c3ccc(-c4cncc(NS(=O)(=O)c5ccc(C(C)(C)C)cc5)c4)s3)ccc2C1=O [Compound 3, 4-(tert-Butyl)-N-(5-(5-(2-methyl-1-oxoisoindolin-5-yl)thiophen-2-yl)pyridin-3-yl)benzenesulfonamide]	285 to 288 °C	–	–	–
CN1Cc2cc(-c3ccc(-c4cncc(NS(=O)(=O)c5cccc(F)c5)c4)s3)ccc2C1=O [Compound 5, 3-Fluoro-N-(5-(5-(2-methyl-1-oxoisoindolin-5-yl)thiophen-2-yl)pyridin-3-yl)benzene-sulfonamide]	292 to 294 °C	–	–	–
CN1Cc2cc(-c3ccc(-c4cncc(NS(=O)(=O)c5ccc(F)c(F)c5)c4)s3)ccc2C1=O [Compound 7, 3,4-Difluoro-N-(5-(5-(2-methyl-1-oxoisoindolin-5-yl)thiophen-2-yl)pyridin-3-yl)benzene-sulfonamide]	282 to 285 °C	–	–	–
CN1Cc2cc(-c3ccc(-c4cncc(NS(=O)(=O)c5ccc(OC(F)(F)F)cc5)c4)s3)ccc2C1=O [Compound 24, N-(5-(5-(2-Methyl-1-oxoisoindolin-5-yl)thiophen-2-yl)pyridin-3-yl)-4-(trifluoromethoxy)benzenesulfonamide]	293 to 296 °C	–	–	–
CN1Cc2cc(-c3ccc(-c4cncc(NS(=O)(=O)c5ccc(C(F)(F)F)cc5Cl)c4)s3)ccc2C1=O [Compound 26, 2-Chloro-N-(5-(5-(2-methyl-1-oxoisoindolin-5-yl)thiophen-2-yl)pyridin-3-yl)-4-(trifluoromethyl)benzenesulfonamide]	292 to 295 °C	–	–	–
CN1Cc2cc(-c3ccc(-c4cncc(NS(=O)(=O)c5ccc(Cl)nc5)c4)s3)ccc2C1=O [Compound 33, 6-Chloro-N-(5-(5-(2-methyl-1-oxoisoindolin-5-yl)thiophen-2-yl)pyridin-3-yl)pyridine-3-sulfonamide]	260 to 265 °C	–	–	–
COc1ncc(-c2ccc(-c3ccc4c(c3)CN(C)C4=O)s2)cc1NS(=O)(=O)c1ccccc1 [Compound 36, N-(2-Methoxy-5-(5-(2-methyl-1-oxoisoindolin-5-yl)thiophen-2-yl)pyridin-3-yl)benzenesulphonamide]	280 to 283 °C	–	–	–
CN1Cc2cc(-c3ccc(-c4ccc(NS(=O)(=O)c5ccc(F)cc5F)nc4)s3)ccc2C1=O [Compound 42, 2,4-Difluoro-N-(5-(5-(2-methyl-1-oxoisoindolin-5-yl)thiophen-2-yl)pyridin-2-yl)benzenesulfonamide]	269 to 272 °C	–	–	–
CN1Cc2cc(-c3ccc(-c4cncc(NC(=O)c5ccc(F)cc5F)c4)s3)ccc2C1=O [Compound 47, 2,4-Difluoro-N-(5-(5-(2-methyl-1-oxoisoindolin-5-yl)thiophen-2-yl)pyridin-3-yl)benzamide]	267 to 269 °C	–	–	–
CC1c2cc(-c3ccc(-c4cncc(NS(=O)(=O)c5ccc(F)cc5F)c4)s3)ccc2C(=O)N1C (centres unmarked) [Compound 51, N-(5-(5-(2,3-Dimethyl-1-oxoisoindolin-5-yl)thiophen-2-yl)pyridin-3-yl)-2,4-difluorobenzenesulfonamide]	229 to 230 °C	–	–	–
O=C1NCCc2cc(-c3ccc(-c4cncc(NS(=O)(=O)c5ccc(F)cc5F)c4)s3)ccc21 [Compound 52, 2,4-Difluoro-N-(5-(5-(1-oxo-1,2,3,4-tetrahydroisoquinolin-6-yl)thiophen-2-yl)pyridin-3-yl)benzensulphonamide]	267 to 270 °C	–	–	–
CN1CCc2cc(-c3ccc(-c4cncc(NS(=O)(=O)c5ccc(F)cc5F)c4)s3)ccc2C1=O [Compound 53, 2,4-Difluoro-N-(5-(5-(2-methyl-1-oxo-1,2,3,4-tetrahydroisoquinolin-6-yl)thiophen-2-yl)pyridin-3-yl)benzenesulfonamide]	262 to 265 °C	–	–	–
O=C1Cc2cc(-c3ccc(-c4cncc(NS(=O)(=O)c5ccc(F)cc5F)c4)s3)ccc2N1 [Compound 67, 2,4-Difluoro-N-(5-(5-(2-oxoindolin-5-yl)thiophen-2-yl)pyridin-3-yl)benzenesulfonamides]	–	42.8 ± 10%	5.04 µM	–
Cc1cc(F)ccc1S(=O)(=O)Nc1cncc(-c2ccc(-c3ccc4c(c3)CN(C)C4=O)s2)c1 [Compound 70, 4-Fluoro-2-methyl-N-(5-(5-(2-methyl-1-oxoisoindolin-5-yl)thiophen-2-yl)pyridin-3-yl)benzenesulphonamide]	–	17.6 ± 13%	–	5.53 µM
Cn1ccc2cc(-c3ccc(-c4cncc(NS(=O)(=O)c5ccc(F)cc5F)c4)s3)ccc21 [Compound 72, 2,4-Difluoro-N-(5-(5-(1-methyl-1H-indol-5-yl)thiophen-2-yl)pyridin-3-yl)benzenesulfonamide]	–	19 ± 17%	8.63 µM	–
CN1Cc2cc(-c3ccc(-c4cncc(NS(=O)(=O)c5ccc(C(=O)O)cc5)c4)s3)ccc2C1=O [Compound 73, 4-(N-(5-(5-(2-Methyl-1-oxoisoindolin-5-yl)thiophen-2-yl)pyridin-3-yl)sulfamoyl)benzoic acid]	–	56.9 ± 29.6%	–	0.75 µM
CN1Cc2cc(-c3ccc(-c4cncc(NS(=O)(=O)c5ccc(I)cc5)c4)s3)ccc2C1=O [Compound 74, 4-Iodo-N-(5-(5-(2-methyl-1-oxoisoindolin-5-yl)thiophen-2-yl)pyridin-3-yl)benzenesulfonamides]	–	15.6 ± 5%	–	5 µM
CN1Cc2cc(-c3ccc(-c4cncc(NS(=O)(=O)c5ccc(Br)cc5Br)c4)s3)ccc2C1=O [Compound 75, 2,4-Dibromo-N-(5-(5-(2-methyl-1-oxoisoindolin-5-yl)thiophen-2-yl)pyridin-3-yl)benzenesulfonamides]	–	49.2 ± 15%	–	2.52 µM
CN1Cc2cc(-c3ccc(-c4cncc(NS(=O)(=O)c5ccc(-c6ccno6)s5)c4)s3)ccc2C1=O [Compound 76, 5-(Isoxazol-5-yl)-N-(5-(5-(2-methyl-1-oxoisoindolin-5-yl)thiophen-2-yl)pyridin-3-yl)thiophene-2-sulfonamide]	–	47.5 ± 10%	–	7.1 µM
CN1Cc2cc(-c3ccc(-c4cncc(NS(=O)(=O)c5ccc(-c6cnco6)cc5)c4)s3)ccc2C1=O [Compound 77, N-(5-(5-(2-Methyl-1-oxoisoindolin-5-yl)thiophen-2-yl)pyridin-3-yl)-4-(oxazol-5-yl)benzenesulfonamides]	–	38.3 ± 5%	–	3.05 µM
CN1Cc2cc(-c3ccc(-c4cncc(NS(=O)(=O)c5ccccc5C(F)(F)F)c4)s3)ccc2C1=O [Compound 78, N-(5-(5-(2-Methyl-1-oxoisoindolin-5-yl)thiophen-2-yl)pyridin-3-yl)-2-(trifluoromethyl)benzenesulfonamide]	–	56 ± 9%	–	1.45 µM
CN1Cc2cc(-c3ccc(-c4cncc(NS(=O)(=O)c5cccc(C(F)(F)F)c5)c4)s3)ccc2C1=O [Compound 81, N-(5-(5-(2-Methyl-1-oxoisoindolin-5-yl)thiophen-2-yl)pyridin-3-yl)-3-(trifluoromethyl)benzenesulfonamides]	–	37.8 ± 19%	–	0.91 µM
CN1Cc2cc(-c3ccc(-c4cncc(NS(=O)(=O)c5ccccc5S(C)(=O)=O)c4)s3)ccc2C1=O [Compound 82, N-(5-(5-(2-Methyl-1-oxoisoindolin-5-yl)thiophen-2-yl)pyridin-3-yl)-2-(methylsulfonyl)benzenesulfonamides]	–	30.5 ± 11%	–	6.8 µM
COC(=O)c1ccc(S(=O)(=O)Nc2cncc(-c3ccc(-c4ccc5c(c4)CN(C)C5=O)s3)c2)cc1 [Compound 84, Methyl 4-(N-(5-(5-(2-methyl-1-oxoisoindolin-5-yl)thiophen-2-yl)pyridin-3-yl)sulfamoyl)benzoate]	–	8.84%	–	8.16 µM
COC(=O)c1ccccc1S(=O)(=O)Nc1cncc(-c2ccc(-c3ccc4c(c3)CN(C)C4=O)s2)c1 [Compound 86, Methyl 2-(N-(5-(5-(2-methyl-1-oxoisoindolin-5-yl)thiophen-2-yl)pyridin-3-yl)sulfamoyl)benzoate]	–	2.3 ± 3%	–	2.9 µM
CN1Cc2cc(-c3ccc(-c4cncc(NS(=O)(=O)c5ccc(Br)s5)c4)s3)ccc2C1=O [Compound 87, 5-Bromo-N-(5-(5-(2-methyl-1-oxoisoindolin-5-yl)thiophen-2-yl)pyridin-3-yl)thiophene-2-sulphonamide]	–	31.6 ± 6%	1.8 µM	–
CN1Cc2cc(-c3ncc(-c4cncc(NS(=O)(=O)c5ccc(F)cc5F)c4)s3)ccc2C1=O [Compound 88, 2,4-Difluoro-N-(5-(2-(2-methyl-1-oxoisoindolin-5-yl)thiazol-5-yl)pyridin-3-yl)benzenesulphonamide]	–	40.5 ± 23%	18.8 µM	–
CN1Cc2cc(-c3ccc(-c4cncc(NS(=O)(=O)c5ccc(F)c(C(F)(F)F)c5)c4)s3)ccc2C1=O [Compound 89, 4-Fluoro-N-(5-(5-(2-methyl-1-oxoisoindolin-5-yl)thiophen-2-yl)pyridin-3-yl)-3-(trifluoromethyl)benzenesulphonamide]	–	59.9 ± 13%	–	3.75 µM
